Measured values reported in patent US4988691A (priority 1989, dated 1991).
Structures can show the parent of a compound that is named as a salt. Where two headings read alike, the source gives them in different places.

Assays:
[1] = target: T1, contracturing effect of acetylcholine (Cavia porcellus, UniProt H0W1Z3); experiment: anticholinergic activity in vitro (contracturing effect of acetylcholine on isolated guinea pig small intestine); parameters: species or system Guinea pigs
T1 construct: Segments measuring 5-6 cm were drawn form the end portion of the small intestine; from tissue; host or cells: guinea pig terminal small intestine (ileum)

[2] = target: T2, contracturing effect of histamine (Cavia porcellus, UniProt P31389); experiment: antihistaminic activity in vitro (contracturing effect of histamine on isolated guinea pig small intestine); parameters: species or system Guinea pigs; details: vs histamine; guinea pig small intestine; 37° C.; test compounds 10^-5 M; read-out: Antihistaminic activity (pA2) (converted)
T2 construct: Segments measuring 5-6 cm were drawn form the end portion of the small intestine; from tissue; host or cells: guinea pig terminal small intestine (ileum)

[3] = tested on: receptors for benzodiazepins; experiment: displacement of 3H-flunitrazepam from benzodiazepine receptors, rat cerebral cortex membranes; assay type: binding; details: 3H-flunitrazepam 1nM
Ca^++ receptors = experiment: displacement of 3H-nitrendipine from Ca++ receptors, rat brain membranes; assay type: binding; details: 3H-nitrendipine 1nM
5-HT3 receptors = target: T3, 5-HT3 receptors (Oryctolagus cuniculus, UniProt A0A5F9C9J3); experiment: anti-5-HT3 activity in vitro on the isolated vagus nerve of rabbit
T3 construct: from tissue; host or cells: isolated rabbit vagus nerve
T3 sequence (A0A5F9C9J3 1-494): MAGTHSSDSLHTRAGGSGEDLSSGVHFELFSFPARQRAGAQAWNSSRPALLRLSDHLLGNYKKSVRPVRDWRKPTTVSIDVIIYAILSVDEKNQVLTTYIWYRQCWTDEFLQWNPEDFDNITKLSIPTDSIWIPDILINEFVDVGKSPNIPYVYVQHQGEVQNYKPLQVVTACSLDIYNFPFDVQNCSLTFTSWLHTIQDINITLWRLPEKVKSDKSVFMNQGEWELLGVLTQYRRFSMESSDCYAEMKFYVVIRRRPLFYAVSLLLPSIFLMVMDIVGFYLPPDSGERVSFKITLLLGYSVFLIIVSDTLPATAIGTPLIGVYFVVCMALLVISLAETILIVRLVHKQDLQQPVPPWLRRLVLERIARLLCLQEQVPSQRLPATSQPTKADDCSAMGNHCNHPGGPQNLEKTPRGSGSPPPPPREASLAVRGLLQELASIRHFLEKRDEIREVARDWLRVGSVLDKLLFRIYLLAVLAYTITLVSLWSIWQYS
Description: (b) Evaluation of the anti-5-HT3 activity in vitro on the vagus nerve of rabbit. Male albino New Zeland rabbits weighing about 3 kg were sacrified by an air injection in the edge auriculaers vein. The two vagus nerves, drawn as soon as possible, were placed in a bath of Locke solution having the following composition: 154 mM NaCl; 5.5 mM KCl; 2.2 mM CaCl2; 5 mM glucose; 8 mM TRIS, the pH being adjusted at 7.6 by addition of HCl. Nerves were stripped of their epineurium and transferred into a device described by Kosterlitz H. W. et al., [J. Physiol., 183, IP-3P, (1966)] consisting of four compartments separated by means of 3 elastic membranes having a little hole through which the nerve passes. The glucose concentration perfusing a portion of the nerve was 315 mM. The overmaximal electric stimulation by a single shock at 10 seconds intervals elicited a potential visualized on a storage oscilloscope. In the potential the complexes due to the excitation of fibers A, B and C were distinguished. A serotonin solution applied to the nerve causes the dose-dependent fall of the potential for fibers C only. The non variation of the A-B complex when applying serotonin and the test compounds of formula I indicates on one hand the specific action of the substances for receptors relating to fibers C only (5-HT3 receptors) and on the other hand the absence of local-anaesthetic activity. Tests were performed at room temperature (24°-25° C.). The optimum maximum reduction of the potential of fibers C by serotonin resulted to be 44%. This reduction was adopted as maximum effect (100%). For each nerve a dose-response curve was constructed with cumulative doses of serotonin. After having washed serotonin and recovered the initial potential, the nerve was balanced with a fixed concentration of the compound of formula I for 60 minutes and successively the dose-response curve to serotonin was repeated, the compound of formula I being always present in the same concentration. After having applied a serotonin concentration sufficient to produce the highest effect, the preparation was washed and thereafter it was balanced again for 60 minutes with a solution of the same compound of formula I having a higher concentration. The procedure was then repeated. For each dose of the compound of formula I the test was repeated more than 5 times. The negative […] logarithm of the molar concentration of the compound of formula I which gives a 50% reduction of the effect of the agonist substance (pA2) was calculated. In table 7, the pA2 values of some compounds of formula I are reported.

rat sciatic nerve = experiment: local anaesthetic activity on sciatic nerve preparation in vitro; details: read-out: ED50 (C.L. 95%)
5-HT2 receptors = 5-HT2 receptors (Rattus norvegicus, UniProt P14842); experiment: affinity for 5-HT2 receptors (3H-spiroperidol binding), rat cortex membranes; details: 3H-spiroperidol […]; rat frontal cortex membranes
5-HT1 receptors = experiment: affinity for 5-HT1 receptors (3H serotonin binding), rat cortex membranes; details: 3H-serotonin 5 nM; rat frontal cortex membranes
guinea pig back = experiment: local anaesthetic activity in the test of the guinea pig back in vivo (intracutaneous infiltration); details: guinea pig back, cutaneous anaesthesia, 0.25 ml
Description: (b) Evaluation of the local anaesthetic activity in the test of the guinea pig back in vivo in comparison with lidocaine.
The local anaesthetic activity was evaluated by the method of intracutaneous infiltration in the guinea pig back as described by Bulbring E. and Wajda I. [(J. Pharmacol. Exp. Ther. 85, 78, (1945)].
Female guinea pigs weighin 400-500 g were treated intracutaneously in 4 points of their back.
At 5 minutes intervals, it was determined the reactivity of the animal to pain in each area by considering the number of responses to 6 pain stimulations.
Compounds of formula I, compound R and lidocaine, dissolved at different concentration in physiological solution adjusting the pH at 7 by addition of NaHCO3 were injected under the skin at the constant volume of 0.25 ml.
The distribution of the treatments in the 4 areas of the back was carried out according to the scheme of the Latin square. Experiments were carried out in blind.
As an example, the ED50 values for compound No. 8, compound R and lidocaine determined at 5, 15 and 30 minutes after the administration are reported in table 4.

[4] = vs acetylcholine, guinea pig small intestine, 37° C., test compounds 10^-5 M, read-out: Antichlonergic activity (pA2) (converted)

T2 sequence (P31389 whole entry): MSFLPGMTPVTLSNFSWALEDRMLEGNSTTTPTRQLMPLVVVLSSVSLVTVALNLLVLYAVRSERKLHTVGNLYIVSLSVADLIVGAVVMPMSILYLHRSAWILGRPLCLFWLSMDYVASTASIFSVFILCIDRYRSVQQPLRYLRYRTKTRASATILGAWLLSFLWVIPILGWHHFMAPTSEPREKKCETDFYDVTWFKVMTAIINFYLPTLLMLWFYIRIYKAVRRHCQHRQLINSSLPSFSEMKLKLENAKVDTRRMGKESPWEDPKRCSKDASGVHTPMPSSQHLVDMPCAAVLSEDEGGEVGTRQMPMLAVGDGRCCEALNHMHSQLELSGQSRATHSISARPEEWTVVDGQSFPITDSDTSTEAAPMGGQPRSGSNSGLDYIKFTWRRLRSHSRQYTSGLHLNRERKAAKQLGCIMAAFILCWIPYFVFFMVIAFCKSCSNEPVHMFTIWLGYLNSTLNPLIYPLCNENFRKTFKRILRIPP
T1 sequence (H0W1Z3 1-590): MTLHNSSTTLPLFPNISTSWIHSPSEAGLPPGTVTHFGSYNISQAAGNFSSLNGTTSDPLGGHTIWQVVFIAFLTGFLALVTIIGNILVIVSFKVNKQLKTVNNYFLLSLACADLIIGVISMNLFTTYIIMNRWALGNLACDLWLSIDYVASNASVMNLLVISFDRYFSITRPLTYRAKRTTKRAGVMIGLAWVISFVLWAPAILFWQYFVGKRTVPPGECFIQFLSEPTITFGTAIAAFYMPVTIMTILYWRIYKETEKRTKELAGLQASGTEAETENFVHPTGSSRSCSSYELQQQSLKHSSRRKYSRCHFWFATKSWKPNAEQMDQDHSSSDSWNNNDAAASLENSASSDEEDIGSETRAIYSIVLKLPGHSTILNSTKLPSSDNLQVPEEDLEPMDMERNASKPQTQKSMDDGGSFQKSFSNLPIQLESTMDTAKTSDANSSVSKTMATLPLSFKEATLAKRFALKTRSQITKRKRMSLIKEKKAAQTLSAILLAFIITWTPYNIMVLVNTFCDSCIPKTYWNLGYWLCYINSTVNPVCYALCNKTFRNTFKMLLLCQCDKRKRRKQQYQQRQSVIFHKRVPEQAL
5-HT2 receptors, sequence (P14842 whole entry): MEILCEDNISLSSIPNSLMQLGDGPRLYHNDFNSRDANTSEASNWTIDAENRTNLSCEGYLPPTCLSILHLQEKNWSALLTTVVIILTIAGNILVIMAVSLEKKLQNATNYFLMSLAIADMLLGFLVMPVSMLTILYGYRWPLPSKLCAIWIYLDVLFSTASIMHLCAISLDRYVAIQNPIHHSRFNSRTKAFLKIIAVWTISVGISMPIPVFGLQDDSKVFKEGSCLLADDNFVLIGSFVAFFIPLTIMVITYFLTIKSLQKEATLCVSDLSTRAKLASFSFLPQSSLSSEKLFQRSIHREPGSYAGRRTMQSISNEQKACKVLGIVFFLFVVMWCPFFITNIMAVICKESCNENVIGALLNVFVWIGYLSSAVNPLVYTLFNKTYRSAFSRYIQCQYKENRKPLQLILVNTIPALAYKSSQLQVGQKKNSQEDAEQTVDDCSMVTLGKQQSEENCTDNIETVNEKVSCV

CN1[C@@H]2CC[C@H]1C[C@@H](OC(=O)c1cc(OCc3ccccc3)no1)C2 [Compound 3, 3-benzyloxyisoxazole-5-carboxylic acid 3-(endo-8-methyl-8-azabicyclo[3,2,1]octyl) ester hydrochloride]
Kb [1]: 2 µM
Kb [2]: 2.51 µM

Cc1cc(C(=O)O[C@H]2C[C@H]3CC[C@@H](C2)N3C)on1 [Compound 5, 3-methylisoxazole-5-carboxylic acid 3-(endo-8-methyl-8-azabicyclo[3,2,1]octyl) ester hydrochloride]
Displacement activity at benzodiazepine receptors [3]: inactive
Displacement activity at receptors of Ca++ (Ca^++ receptors): inactive
Kb [1]: 31.6 µM
Kb (5-HT3 receptors): 0.00158 µM
Kb [2]: 12.6 µM

COc1cc(C(=O)O[C@H]2C[C@H]3CC[C@@H](C2)N3C)on1 [Compound 6, 3-methoxyisoxazole-5-carboxylic acid 3-(endo-8-methyl-8-azabicyclo[3,2,1]octyl) ester hydrochloride]
IC50 (rat sciatic nerve; rat, sciatic nerve, 8 min): > 15000 µM
Kb [1]: 12.6 µM
Kb (5-HT3 receptors): 0.00126 µM
Kb [2]: 6.31 µM

Cc1cc(C(=O)OC2CCN(C)CC2)no1 [Compound 9, 5-methylisoxazole-3-carboxylic acid 4-(1-methylpiperidinyl) ester hydrochloride]
IC50 (rat sciatic nerve; rat sciatic nerve in vitro, 8 minutes contact): > 15000 µM
Kb [1, 4]: 25.1 µM
Kb [2]: 10 µM

Cc1cc(C(=O)OC2CCCN(C)C2)no1 (stereo not shown) [Compound 10, 5-methylisoxazole-3-carboxylic acid 3-(1-methylpiperidinyl) ester hydrochloride]
Kb [1, 4]: 50.1 µM
Affinity (IC50) to 5-HT2 receptors (5-HT2 receptors): inactive
Kb [2]: 200 µM

CCN1CCCC(NC(=O)c2cc(C)on2)C1 (stereo not shown) [Compound 14, N-(1-ethyl-3-piperidinyl)-5-methylisoxazole-3-carboxamide]
Kb [2]: 316 µM

Cc1cc(C(=O)N[C@@H]2C[C@H]3CC[C@@H](C2)N3C)no1 [Compound 15, N-[3-(exo-8-methyl-8-azabicyclo[3,2,1]octyl)]-5-methylisoxazole-3-carboxamide]
Kb [2]: 50.1 µM

Cc1cc(C(=O)N[C@H]2C[C@H]3CC[C@@H](C2)N3C)no1 [Compound 16, N-[3-(endo-8-methyl-8-azabicyclo[3,2,1]octyl)]-5-methylisoxazole-3-carboxamide]
Kb [1]: 126 µM
Kb [2]: 7.94 µM

Cc1cc(C(=O)NC2CN3CCC2CC3)no1 (stereo not shown) [Compound 17, N-[3-(1-azabicyclo[2,2,2]octyl)]-5-methylisoxazole-3-carboxamide]
Kb [2]: 50.1 µM

Cc1cc(C(=O)O[C@H]2C[C@H]3CC[C@@H](C2)[N+]3(C)C)no1 [Compound 18, endo-8,8-dimethyl-3-(5-methylisoxazole-3-carbonyloxy)-8-azoniabicyclo[3,2,1]octane bromide]
IC50 (rat sciatic nerve; rat, sciatic nerve, 8 min): > 15000 µM
Kb [1]: 6.31 µM
Affinity (IC50) to 5-HT2 receptors (5-HT2 receptors): inactive
Affinity (IC50) to 5-HT1 receptors (5-HT1 receptors): inactive
Kb [2]: 15.8 µM

CN1C(=O)CN=C(c2ccccc2)c2cc(Cl)ccc21 [diazepam, reference compound]
Displacement activity at benzodiazepine receptors [3]: 4

O=C(c1ccc(F)cc1)C1CCN(CCn2c(=O)[nH]c3ccccc3c2=O)CC1 [ketanserine, reference compound]
IC50 (5-HT1 receptors): 10 µM

CCN(CC)CC(=O)Nc1c(C)cccc1C [lidocaine]
IC50 (rat sciatic nerve; rat, sciatic nerve, 8 min): 600 µM
ED50 (C.L. 95%), 5 min. (guinea pig back; 5 min. after administration): 5.8 (4.9-6.8) mM
ED50 (C.L. 95%), 15 min. (guinea pig back; 15 min. after administration): 7.6 (6.8-8.4) mM
ED50 (C.L. 95%), 30 min. (guinea pig back; 30 min. after administration): 15.2 (13.8-16.6) mM

NCCc1c[nH]c2ccc(O)cc12 [serotonin, reference compound]
optimum maximum reduction of the potential of fibers C (5-HT3 receptors; serotonin applied to rabbit vagus nerve, 24°-25° C.): 44%
